Read-outs that look alike come from different tables or passages of the source.
Tests used:
Drosophila OR10a = molecular target: T1, Drosophila OR10a (Drosophila melanogaster, UniProt Q9VYZ1); assay: Calcium ion fluorescence (GCaMP6) assay, OR10a stable HEK293 cell line; type: cell-based; conditions: for OR10a response (VUAA1-normalized) at 1 μM / OR10a response (VUAA1-normalized) at 10 μM / OR10a response (VUAA1-normalized) at 100 μM: OR10a cell line
T1 construct: expressed in transfected cells
T1 sequence (Q9VYZ1 1-406): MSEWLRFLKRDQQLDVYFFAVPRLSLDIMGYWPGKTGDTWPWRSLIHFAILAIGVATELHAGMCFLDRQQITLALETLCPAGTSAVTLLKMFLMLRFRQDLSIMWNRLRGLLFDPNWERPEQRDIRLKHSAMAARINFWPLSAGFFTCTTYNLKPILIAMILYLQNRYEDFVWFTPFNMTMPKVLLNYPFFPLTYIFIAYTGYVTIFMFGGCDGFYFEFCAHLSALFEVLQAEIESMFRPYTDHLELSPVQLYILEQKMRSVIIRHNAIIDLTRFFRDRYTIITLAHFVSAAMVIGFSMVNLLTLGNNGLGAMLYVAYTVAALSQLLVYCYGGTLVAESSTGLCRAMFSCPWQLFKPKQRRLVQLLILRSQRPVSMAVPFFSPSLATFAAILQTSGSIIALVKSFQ
T1 sequence (Q9VNB5 1-486 partner): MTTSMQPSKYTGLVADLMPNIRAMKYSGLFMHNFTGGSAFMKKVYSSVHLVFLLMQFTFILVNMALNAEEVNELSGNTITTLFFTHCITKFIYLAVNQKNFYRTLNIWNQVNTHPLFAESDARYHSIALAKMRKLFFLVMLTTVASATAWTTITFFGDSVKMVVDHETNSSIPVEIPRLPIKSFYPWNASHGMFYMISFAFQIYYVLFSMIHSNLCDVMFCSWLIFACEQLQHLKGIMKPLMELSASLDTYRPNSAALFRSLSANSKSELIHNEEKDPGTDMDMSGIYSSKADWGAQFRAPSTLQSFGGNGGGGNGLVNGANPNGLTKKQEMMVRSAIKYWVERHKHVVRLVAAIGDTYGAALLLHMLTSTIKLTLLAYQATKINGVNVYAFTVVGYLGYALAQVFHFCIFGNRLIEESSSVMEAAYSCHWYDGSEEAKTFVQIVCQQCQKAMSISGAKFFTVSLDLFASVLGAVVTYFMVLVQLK
Experimental: (§1) These VUAA1 normalized ∆F values were used to compare the different receptors and ligands.
(§2) The concentration-dependent effect of the reference ligands on their cognate cell lines was examined in more detail. Twelve different ligand concentrations were measured on each cell line in an overall 0.01 μM to 100 μM concentration range with 5 repetitions with three technical replicates each time.
(§3) Twelve thousand to 18,000 cells were plated into each well of a black wall, transparent bottom 384-well microplate (Greiner) 48 h or 72 h before the measurements and were simultaneously treated with 1 μg/mL doxycycline. […] The plate has 24 columns, thus we could record responses in up to eight different cell lines in each plate. On the day of the experiment, the growth medium was replaced with 20 µL assay buffer/well (140 mM NaCl, 5 mM KCl, 2 mM CaCl2, 1 mM MgCl2, 5 mM HEPES-Na, 20 mM glucose, pH 7.3, 340 mOsm). […] Baseline fluorescence (F0) was recorded for 5 s, after which 7 µL VOC buffer (140 mM NaCl, 5 mM KCl, 2 mM CaCl2, 1 mM MgCl2, 5 mM HEPES-Na, 31 mM glucose, 0.1% DMSO, pH 7.3, 340 mOsm) was injected into each well in one row and the fluorescence response was recorded for an additional 30 s, at a rate of one read/sec. VOC solutions (VOC buffer with 4× concentration of the final measured VOC concentration, 9 µL/well was injected) were measured on the same wells in a second round with the same protocol. Each individual concentration of a specific VOC sample was recorded in three wells for the same cell line on the same microplate. The raw data were exported in xls file format, F0 and FMAX values, and the fluorescence intensity changes (∆F) were calculated in Excel (Microsoft) (Supplementary file Data summary.xlsx) using the following equation: ΔF=FMAX-F0/F0 (see also Fig. 1C). On each plate, we recorded the response of each cell line to 50 µM VUAA1. The average of these ∆F values of each cell line were used to calculate the VUAA1-normalized values for the rest of the plate, by dividing VOC response ∆F values by the average VUAA1 response ∆F value of the corresponding OR cell line. Each VOC-OR combination was measured three times as technical replicates. […] The average of these replicates were used as one ∆F and VUAA1-normalized ∆F in the following analysis.
(§4) In the next rows we tested the reference VOCs (or other VOCs known to activate the corresponding cell lines), in order to test if all cell lines are responsive. The remaining rows were used to test VOCs with unknown effect.
(§5) The recorded FMAX, F0, ∆F, VUAA1-normalized ∆F values, as well as the OR name, the name of the tested sample, and the final concentration for each well were copied into supplementary file Data summary.xlsx, that was used to summarize all the plates recorded. Here, the averages of the measurements were calculated for each receptor-VOC-concentration combination.

Drosophila OR98a = molecular target: T2, Drosophila OR98a (Drosophila melanogaster, UniProt Q9VAZ3); assay: Calcium ion fluorescence (GCaMP6) assay, OR98a stable HEK293 cell line; type: cell-based; conditions: for OR98a response (VUAA1-normalized) at 1 μM / OR98a response (VUAA1-normalized) at 10 μM / OR98a response (VUAA1-normalized) at 100 μM / Average response: OR98a cell line; for Average response: average of biological replicates, fraction of VUAA1 response
T2 construct: expressed in transfected cells
T2 sequence (Q9VAZ3 1-397): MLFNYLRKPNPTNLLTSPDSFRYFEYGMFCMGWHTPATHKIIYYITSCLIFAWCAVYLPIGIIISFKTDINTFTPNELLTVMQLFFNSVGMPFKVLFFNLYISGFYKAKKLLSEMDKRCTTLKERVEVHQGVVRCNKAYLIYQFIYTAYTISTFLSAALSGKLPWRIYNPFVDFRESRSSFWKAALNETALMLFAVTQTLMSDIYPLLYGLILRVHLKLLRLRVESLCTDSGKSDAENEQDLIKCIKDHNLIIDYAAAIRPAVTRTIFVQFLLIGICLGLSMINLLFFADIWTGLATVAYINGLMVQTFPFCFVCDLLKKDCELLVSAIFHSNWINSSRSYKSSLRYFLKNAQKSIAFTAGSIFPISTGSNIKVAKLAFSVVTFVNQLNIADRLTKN
T2 sequence (Q9VNB5 1-486 partner): T1 sequence (Q9VNB5 1-486 partner)
Experimental: as §1, §2, §3, §4, §5

[1] = HEK293, 1 μM VOC, 50 μM VUAA1 = 1, responses not exceeding 0.05 considered 0, read-out: OR10a Average response (VUAA1-normalized)
[2] = HEK293, 10 μM VOC, 50 μM VUAA1 = 1, responses not exceeding 0.05 considered 0, read-out: OR10a Average response (VUAA1-normalized)
[3] = HEK293, 100 μM VOC, 50 μM VUAA1 = 1, responses not exceeding 0.05 considered 0, read-out: OR10a Average response (VUAA1-normalized)
[4] = ligand concentration 1 (unit not given), 0.05 threshold, values below shown as 0
[5] = ligand concentration 10 (unit not given), 0.05 threshold, values below shown as 0
[6] = ligand concentration 100 (unit not given), 0.05 threshold, values below shown as 0
[7] = HEK293, read-out: Average response
[8] = HEK293, read-out: OR10a response (VUAA1-normalized response), VOC concentration 1 μM
[9] = HEK293, read-out: OR10a response (VUAA1-normalized response), VOC concentration 10 μM
[10] = HEK293, read-out: OR10a response (VUAA1-normalized response), VOC concentration 100 μM
[11] = ligand concentration 1 (unit not given), threshold 0.05, below shown as 0
[12] = ligand concentration 10 (unit not given), threshold 0.05, below shown as 0
[13] = ligand concentration 100 (unit not given), threshold 0.05, below shown as 0
[14] = HEK293, read-out: OR98a Average response (VUAA1-normalized)
[15] = HEK293, read-out: OR98a response (VUAA1-normalized response)
[16] = concentration 1, normalized fluorescence change, values below 0.05 threshold given as 0
[17] = concentration 10, normalized fluorescence change, values below 0.05 threshold given as 0
[18] = concentration 100, normalized fluorescence change, values below 0.05 threshold given as 0

Compound	activation at 1 µM (Drosophila OR10a; [1]) [%]	activation at 10 µM (Drosophila OR10a; [2]) [%]	activation at 100 µM (Drosophila OR10a; [3]) [%]	OR10a response (VUAA1-normalized) at 1 μM (Drosophila OR10a; VOC concentration 1 μM)	OR10a response (VUAA1-normalized) at 10 μM (Drosophila OR10a; VOC concentration 10 μM)	OR10a response (VUAA1-normalized) at 100 μM (Drosophila OR10a; VOC concentration 100 μM)	activation at 1 µM (Drosophila OR98a; [7]) [%]	activation at 10 µM (Drosophila OR98a; [7]) [%]	activation at 100 µM (Drosophila OR98a; [7]) [%]	OR98a response (VUAA1-normalized) at 1 μM (Drosophila OR98a; VOC concentration 1 μM)	OR98a response (VUAA1-normalized) at 10 μM (Drosophila OR98a; VOC concentration 10 μM)	activation at 1 µM (Drosophila OR10a; [8]) [%]	activation at 10 µM (Drosophila OR10a; [9]) [%]	activation at 100 µM (Drosophila OR10a; [10]) [%]	activation at 1 µM (Drosophila OR98a; [15]) [%]	activation at 10 µM (Drosophila OR98a; [15]) [%]	activation at 100 µM (Drosophila OR98a; [15]) [%]	DF norm AVERAGE OR98a (Drosophila OR98a; [16])	DF norm AVERAGE OR98a (Drosophila OR98a; [17])	DF norm AVERAGE OR98a (Drosophila OR98a; [18])	further results
CCCCCCCCCCC [undecane]	0	0	0	0.00	0.00	0.00	2.26	0	8	0.00	0.00	–	–	–	–	–	–	–	–	–	DF norm AVERAGE OR10a (Drosophila OR10a; [4]): 0; DF norm AVERAGE OR10a (Drosophila OR10a; [5]): 0; DF norm AVERAGE OR10a (Drosophila OR10a; [6]): 0; OR98a response (VUAA1-normalized) at 100 μM (Drosophila OR98a; VOC concentration 100 μM): 0.08; DF norm AVERAGE OR98a (Drosophila OR98a; [4]): 0; DF norm AVERAGE OR98a (Drosophila OR98a; [5]): 0; DF norm AVERAGE OR98a (Drosophila OR98a; [6]): 0.08228
CC(=O)OCCC(C)C [isopentyl acetate]	9	19	10	–	–	–	2.74	2.22	31	–	–	9	19	10	0	0	31	–	–	–	DF norm AVERAGE OR10a (Drosophila OR10a; [11]): 0.08825; DF norm AVERAGE OR10a (Drosophila OR10a; [12]): 0.1921; DF norm AVERAGE OR10a (Drosophila OR10a; [13]): 0.101; activation at 1 µM (Drosophila OR98a; [14]): 3%; activation at 10 µM (Drosophila OR98a; [14]): 2%; activation at 100 µM (Drosophila OR98a; [14]): 31%; DF norm AVERAGE OR98a (Drosophila OR98a; [11]): 0; DF norm AVERAGE OR98a (Drosophila OR98a; [12]): 0; DF norm AVERAGE OR98a (Drosophila OR98a; [13]): 0.3069
Cc1ccc(O)cc1 [4-methylphenol]	2.37	1.81	6.62	–	–	–	0	2	2.76	–	–	0	0	6.62	0	0	0	0	0	0	–
CCCCC(C)O (stereo not drawn) [2-hexanol]	2.54	0	0	–	–	–	0	0	14	–	–	0	0	0	0	0	14	0	0	0.1401	DF norm AVERAGE OR10a (Drosophila OR10a): 0; activation at 1 µM (Drosophila OR98a; [14]): 0%; activation at 10 µM (Drosophila OR98a; [14]): 0%; activation at 100 µM (Drosophila OR98a; [14]): 14%
(-)-alpha-cedrene	–	–	–	–	–	–	–	–	–	–	–	–	–	–	–	–	–	0	0	0	DF norm AVERAGE OR10a (Drosophila OR10a): 0; OR10a Average response (VUAA1-normalized) (Drosophila OR10a; 1 μM VOC, 50 μM VUAA1 = 1, responses not exceeding 0.05 considered 0): 0.02; OR10a Average response (VUAA1-normalized) (Drosophila OR10a; 10 μM VOC, 50 μM VUAA1 = 1, responses not exceeding 0.05 considered 0): 0.06; OR10a Average response (VUAA1-normalized) (Drosophila OR10a; 100 μM VOC, 50 μM VUAA1 = 1, responses not exceeding 0.05 considered 0): 0.00; OR10a response (VUAA1-normalized response) (Drosophila OR10a; VOC concentration 1 μM): 0.00; OR10a response (VUAA1-normalized response) (Drosophila OR10a; VOC concentration 10 μM): 0.06; OR10a response (VUAA1-normalized response) (Drosophila OR10a; VOC concentration 100 μM): 0.00; DF norm AVERAGE OR10a (Drosophila OR10a; [17]): 0.05923; OR98a response (VUAA1-normalized response) (Drosophila OR98a; VOC concentration 1 μM): 0.00; OR98a response (VUAA1-normalized response) (Drosophila OR98a; VOC concentration 10 μM): 0.00; OR98a response (VUAA1-normalized response) (Drosophila OR98a; VOC concentration 100 μM): 0.00; Average response (Drosophila OR98a; cc. 1 µM): 0.00; Average response (Drosophila OR98a; cc. 10 µM): 0.0421; Average response (Drosophila OR98a; cc. 100 µM): 0.0341
CC/C=C\CCO [Z-3-hexenol]	–	–	–	0.17	0.19	0.10	–	–	–	0.00	0.17	–	–	–	–	–	–	–	–	–	OR98a response (VUAA1-normalized) at 100 μM (Drosophila OR98a; VOC concentration 100 μM): 0.11

Source: paper PMC10709440, “High-throughput ligand profile characterization in novel cell lines expressing seven heterologous insect olfactory receptors for the detection of volatile plant biomarkers” (Scientific Reports, 2023)
